Assay results reported in PubChem BioAssay (NCI).
“And” between values parts separate entries of the source, which are not always exact repeats. Identical values can stand only once.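 Five concentrations, 48 hours, 96-well plates. Abbreviation: GI50, concentration required for 50% inhibition of growth. TGI: concentration producing complete growth inhibition.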

How the values were obtained:
Experiment in all cases: DTP human tumour cell line panel, 48 h
[1] = system: A498 renal
[2] = system: CCRF-CEM leukemia
[3] = system: EKVX NSCLC
[4] = system: HCT-116 colon
[5] = system: HOP-92 NSCLC
[6] = system: NCI-H226 lung
[7] = system: NCI/ADR-RES ovarian
[8] = system: SF-268 CNS
[9] = system: U251 CNS
[10] = system: HL-60(TB) leukemia

SMILES	TGI [1] [µM]	TGI [2] [µM]	TGI [3] [µM]	TGI [4]	TGI [5] [µM]	TGI [6] [µM]	TGI [7] [µM]	TGI [8] [µM]	TGI [9] [µM]	TGI [10] [µM]	GI50 [1] [µM]	GI50 [2] [µM]	GI50 [3] [µM]	GI50 [5] [µM]	GI50 [7] [µM]	GI50 [8] [µM]	GI50 [9] [µM]	GI50 [6] [µM]
CN(CCN)[C@H](CSSC[C@@H](c1ccccc1O)N(C)CCN)c1ccccc1O	39.2	10.5	23.9	20.4 µM	35.6	35.4	23.5	33.7	> 47.8									
C[N+]1(C)CCCC(C#N)(c2ccccc2)CC1 (configuration not stated)	> 100	> 100	> 100	> 100 µM	> 100		> 100	> 100	> 100	> 100								
O=C(NNC(=O)c1ccco1)c1ccco1	> 100	> 100	> 100	> 100 µM		> 100	> 100	> 100	> 100	> 100								
Cc1ccc(S(=O)(=O)OC[C@@]2(C)CC[C@]3(C)CC[C@]4(C)C(=C3C2)C=C[C@@H]2[C@@]3(C)CCCNC(C)(C)[C@@H]3CC[C@]24C)cc1	3.13	6.06	3.29		2.97		4.59	4.12	3.17		1.71	2.14	1.7	1.45	2.05	1.95	1.66	
O=c1cc(-c2cccc(OC(F)(F)F)c2)[nH]c2ccc(N3CCCC3)cc12		> 100	> 100	0.177 µM and 1.76 µM	> 100	0.000657	0.000673	19.1	16.5	< 0.0001			0.0493					
N#C[S-].[La+3].c1ccc(-c2ccccn2)nc1.c1ccc(-c2ccccn2)nc1.c1ccc(-c2ccccn2)nc1			> 100			67.9			> 100				22				20.1	19.5
CSc1cc(Cl)c(C)cc1S(=O)(=O)NC(=O)NNc1ccc(C)cc1	> 100	> 100	> 100	> 100 µM		> 100	> 100	> 100	> 100									
O=C1c2cc3c(cc2NC(c2ccccc2F)C1O)OCO3 (configuration not stated)	58.1	97.7	> 70.8	> 35.7 µM	> 100	> 64.7	> 64.7	68.2	> 68									
Cc1ccc(S(=O)(=O)N/N=C2\C=CC3(CC2)C(=O)N(I)c2ccccc23)cc1 (configuration not stated)	> 100	> 100	> 100	> 100 µM	> 100	> 100	> 100	> 100	> 100									
COc1ccc(OC)c2c(C(C)=O)cccc12	> 100	> 100	> 100	> 100 µM		> 100	> 100	> 100	> 100	> 100								
O=C(/C=C/c1ccc(OCc2ccccc2)cc1)NCc1ccc(C(=O)NCCc2ccccc2)cc1	> 100	> 100	> 100	> 100 µM	> 100	> 100	> 100	> 100	> 100									
CCOC(=O)N1c2ccccc2C(C)=CC(C)C1C (configuration not stated)	96.5	> 100	99	40.1 µM		80.1	> 100	> 100		57.2								
CCOC(=O)[C@@]12C[C@](/C=C/OC)(O[Si](C)(C)C)[C@@]13c1cc(OC)c(OC)cc1CCN3C(=O)C2=O	> 100	> 100	> 100	> 100 µM	> 100	> 100	> 100	> 100	> 100									
COC(=O)[C@@H]1c2c(oc3cc(CO)cc(O)c3c2=O)C=C[C@H]1O	20	25	27.4	5.98 µM	22.4	51.5	47.5	21.7	22.5									
CO[C@@]12C[C@H](CNC(=O)c3ccc[nH]3)O[C@@H]1NC(=O)N2	> 100		> 100	> 100 µM	> 100	> 100	> 100	> 100	> 100	> 100								
O=C(C[N+]12CN3CN(CN(C3)C1)C2)c1ccc(-c2ccccc2)cc1	44.4	5.37	44.9	35.7 µM	> 100	49.3	89.4	39.4	32.2									
S=C(NCc1ccccn1)N/N=C/c1ccccn1		< 0.011	2.44	< 0.01 µM		0.163	> 100	> 100	> 60.2	< 0.01								
CCOC(=O)c1ccc(N(CCOS(C)(=O)=O)CCOS(C)(=O)=O)cc1	> 100	77.6	> 100	> 100 µM	> 100		> 100	> 100	> 100	> 100								
COc1cc2c(oc(=O)c3c4occc4cc(OC)c23)c2cccc(O)c12	> 100	> 100	> 100	> 100 µM	> 100	> 100		> 100	> 100	> 100								
CN(C)S(=O)(=O)c1ccc2[nH]c(O)c(C3=Nc4ccccc4C3=O)c2c1	97.4	> 100	> 100	70.1 µM	46.8	81.3	> 100	38.7	24.9									
CCOC(=O)Cc1c(C(=O)OCC)[n+](=O)c2cc(Cl)c(Cl)cc2n1[O-]	6.14	6.29	11.4	7.27 µM			8.61	7.87	9.67	5.74								
CC(=O)N[C@@H](Cc1ccc(O)cn1)C(=O)NCc1ccc(Cl)cc1	> 100	> 100	> 100	> 100 µM	> 100	> 100	> 100		> 100	> 100								
